In PMC7689813 (Journal of Clinical Pharmacology, 2020):
Where “and” joins values, the source holds several entries; their conditions need not be identical. Equal entries are not always repeated. Entries after “also recorded” stand apart in the source; their conditions may differ.

Assays:
CYP3A [1] = test: Clinical DDI study: elagolix 150 mg once daily effect on midazolam; conditions: male participants
CYP2B6 = test: Clinical DDI study: elagolix effect on bupropion; assay type: in vivo, human; conditions: for Change in AUC values / Increase in Cmax: single dose bupropion after 10 days of elagolix 300 mg twice daily
P‐gp [2] = biological target: P‐gp (Homo sapiens, UniProt P08183); test: Clinical DDI study: elagolix effect on digoxin
CYP3A4 = conditions: cited from earlier work
[3] = background; cited from earlier work
P‐gp [4] = conditions: cited from earlier work
[5] = cited from earlier work
CYP2C19 [6] = conditions: cited from earlier work
CYP3A [7] = test: Clinical DDI study: elagolix 300 mg twice daily effect on midazolam
[8] = Clinical DDI study: elagolix and fluconazole
OATP1B1/B3 and BCRP = test: Clinical DDI study: elagolix and rosuvastatin; assay type: in vivo, human; conditions: for Increase in rosuvastatin Cmax: first (single) dose of elagolix 300 mg
CYP3A and P‐gp = test: Clinical DDI study: ketoconazole effect on elagolix; assay type: in vivo, human
OATP1B1 = conditions: cited from earlier work
OATP1B1, CYP3A and P‐gp = test: Clinical DDI study: single and multiple dose rifampin effect on elagolix
[9] = system: breast cancer resistance protein (BCRP); conditions: cited from earlier work
CYP2C19 [10] = conditions: cited from earlier work; remark: listed apart in the source
[11] = Clinical DDI study: elagolix and sertraline
[12] = Safety and tolerability in the 9 phase 1 DDI studies; assay type: in vivo, human; conditions: for Participants reporting 1 or more TEAE: ketoconazole study
[13] = either single dose or multiple doses (10 days) of elagolix 200 mg twice daily
[14] = multiple doses of rifampin (dosing for 10 days) vs elagolix alone
[15] = first dose of elagolix 300 mg twice daily, female participants
[16] = multiple doses of elagolix 300 mg twice daily

Chain of P‐gp (Homo sapiens, UniProt P08183) (P08183 whole entry): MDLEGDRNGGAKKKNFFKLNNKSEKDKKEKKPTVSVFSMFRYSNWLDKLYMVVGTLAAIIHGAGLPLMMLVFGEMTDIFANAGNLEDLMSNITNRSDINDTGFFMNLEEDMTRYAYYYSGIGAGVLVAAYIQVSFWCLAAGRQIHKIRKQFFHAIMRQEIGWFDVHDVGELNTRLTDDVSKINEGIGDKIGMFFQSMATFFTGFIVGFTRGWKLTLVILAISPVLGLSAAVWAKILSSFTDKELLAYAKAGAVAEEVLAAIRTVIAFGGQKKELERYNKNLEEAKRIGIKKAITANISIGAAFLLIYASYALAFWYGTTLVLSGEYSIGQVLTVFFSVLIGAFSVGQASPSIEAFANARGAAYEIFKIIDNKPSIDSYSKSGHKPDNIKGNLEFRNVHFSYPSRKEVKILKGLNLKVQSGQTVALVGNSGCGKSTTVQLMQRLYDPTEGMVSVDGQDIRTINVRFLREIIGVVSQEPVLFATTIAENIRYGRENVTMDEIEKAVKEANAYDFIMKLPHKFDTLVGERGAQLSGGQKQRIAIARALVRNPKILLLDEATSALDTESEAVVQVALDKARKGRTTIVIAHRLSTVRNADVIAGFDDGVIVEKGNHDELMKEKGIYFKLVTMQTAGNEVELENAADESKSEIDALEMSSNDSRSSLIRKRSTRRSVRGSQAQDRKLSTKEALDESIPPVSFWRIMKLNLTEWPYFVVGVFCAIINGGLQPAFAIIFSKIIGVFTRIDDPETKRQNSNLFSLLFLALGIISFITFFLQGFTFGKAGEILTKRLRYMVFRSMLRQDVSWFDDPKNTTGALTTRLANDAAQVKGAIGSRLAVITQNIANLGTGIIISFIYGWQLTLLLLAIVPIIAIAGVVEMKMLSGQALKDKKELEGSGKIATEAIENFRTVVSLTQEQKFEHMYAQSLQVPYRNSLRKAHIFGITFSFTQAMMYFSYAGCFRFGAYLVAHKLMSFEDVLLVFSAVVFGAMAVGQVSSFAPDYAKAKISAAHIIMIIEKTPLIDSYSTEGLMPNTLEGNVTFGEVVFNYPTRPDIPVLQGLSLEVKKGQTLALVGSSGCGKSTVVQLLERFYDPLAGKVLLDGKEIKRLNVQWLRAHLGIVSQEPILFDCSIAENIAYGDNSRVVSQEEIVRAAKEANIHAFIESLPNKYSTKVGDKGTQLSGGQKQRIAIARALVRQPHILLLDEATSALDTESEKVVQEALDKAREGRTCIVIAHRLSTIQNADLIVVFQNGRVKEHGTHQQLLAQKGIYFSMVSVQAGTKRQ

With OCc1ncc2n1-c1ccc(Cl)cc1C(c1ccccc1F)=NC2 [1‐OH‐midazolam, 1-hydroxymidazolam] the “Increase in 1‐OH‐midazolam exposures” value (CYP3A [1]; elagolix 150 mg once daily) was “up to 11%”.
In the case of C[C@H]1NC(C)(C)CO[C@]1(O)c1cccc(Cl)c1 [OH‐bupropion, hydroxybupropion], the “Change in AUC values” (CYP2B6) is reported as at most 9% and the “Increase in Cmax” value (CYP2B6) is reported as 32%.
For CC(NC(C)(C)C)C(=O)c1cccc(Cl)c1 (centres unmarked) [bupropion], the “Increase in bupropion PK” value (CYP2B6; elagolix 300 mg twice daily) was at most 25%, the “Change in AUC values” (CYP2B6) was at most 9% and the “Increase in Cmax” value (CYP2B6) was 25%.
For C[C@H]1O[C@@H](O[C@H]2[C@@H](O)C[C@H](O[C@H]3[C@@H](O)C[C@H](O[C@H]4CC[C@@]5(C)[C@H](CC[C@@H]6[C@@H]5C[C@@H](O)[C@]5(C)[C@@H](C7=CC(=O)OC7)CC[C@]65O)C4)O[C@@H]3C)O[C@@H]2C)C[C@H](O)[C@@H]1O [digoxin], the “Increase in digoxin AUC” value (P‐gp [2]; [13]) was about 30%, the “Increase in digoxin Cmax” value (P‐gp [2]; [13]) was “approximately 70%” and the “Digoxin t½ alone vs in the presence of elagolix” value (P‐gp [2]; elagolix 200 mg twice daily) was “similar”.
In the case of COc1cccc(-c2c(C)n(Cc3c(F)cccc3C(F)(F)F)c(=O)n(C[C@H](NCCCC(=O)O)c3ccccc3)c2=O)c1F [elagolix, sodium R‐(+)‐4‐{2‐[5‐(2‐fluoro‐3‐methoxyphenyl)‐3‐(2‐fluoro‐6‐[trifluoromethyl]benzyl)‐4 ‐methyl‐2,6‐dioxo‐3,6‐dihydro‐2H‐pyrimidin‐1‐yl]‐1‐phenylethylamino}butyrate], the “In vitro effect on CYP3A4” value (CYP3A4) is listed as “inducer”, the “In vitro metabolism (enzyme)” value (CYP3A4) is listed as “metabolized primarily by the cytochrome P450 (CYP) enzyme CYP3A4” and the “Common adverse reactions associated with elagolix” value [3] is listed as “hot flush, headache, and nausea”. The “In vitro effect on P‐gp” value (P‐gp [4]) was “inhibitor”, the “Excreted unchanged in urine” value [5] was “less than 3%” and the “Plasma exposure of elagolix metabolites relative to the parent compound” value [5] was “less than 3%”. For the same compound, the “Dose proportionality of exposure” value ([5]; from 100 to 400 mg twice daily) was “approximately dose proportional”, the “Apparent terminal‐phase elimination half‐life (t½)” value ([5]; oral) was 4 to 6 h and the “Time to mean maximum observed plasma concentration (Tmax)” value ([5]; oral) was “approximately 1 hour”. The “In vitro effect on CYP2C19” value (CYP2C19 [6]) was “inhibitor”, the “Classification of elagolix as inducer of CYP3A” value (CYP3A [7]; depending on the dose administered (150 mg once daily, 300 mg twice daily), midazolam studies) was “weak or moderate inducer; also recorded: weak to moderate inducer” and the “Increase in elagolix steady‐state Cmax” value ([8]; 10 days of elagolix 300 mg twice daily, single dose of fluconazole 200 mg) was “approximately 30%”. For the same compound, the “Classification of elagolix as inhibitor of efflux transporter P‐gp” value (P‐gp [2]; mechanistic clinical studies) was “weak inhibitor”, the “Effect of rosuvastatin on elagolix exposure” value (OATP1B1/B3 and BCRP; rosuvastatin 20 mg once daily, elagolix 300 mg twice daily) was “no effect” and the “Classification of elagolix as CYP3A (or P‐gp) substrate” value (CYP3A and P‐gp; based on ketoconazole study vs FDA criterion (≥5‐fold increase)) was “not considered a sensitive CYP3A substrate”. The “Elagolix half‐life with vs without ketoconazole coadministration” value (CYP3A and P‐gp; elagolix 150 mg single dose, ketoconazole 400 mg once daily) was “similar”, the “In vitro effect on OATP1B1” value (OATP1B1) was “inhibitor” and the “Increase in elagolix exposures (Cmax and AUC)” value (OATP1B1, CYP3A and P‐gp; multiple days of rifampin dosing) was at most 2 fold. For the same compound, the “Increase in elagolix AUC” value (OATP1B1, CYP3A and P‐gp; [14]) was ~2 fold and 1.7 fold, the “Increase in elagolix Cmax” value (OATP1B1, CYP3A and P‐gp; [14]) was 2.0 fold and the “Increase in elagolix exposures (Cmax and AUC)” value (OATP1B1, CYP3A and P‐gp; single dose of rifampin) was < 6 fold and > 4.4 fold. For the same compound, the “Increase in elagolix Cmax” value (OATP1B1, CYP3A and P‐gp; with a single dose of rifampin 600 mg vs elagolix alone) was 4.4 fold, the “In vitro effect on BCRP” value [9] was “inhibitor” and the “Classification of elagolix as inhibitor of CYP2C19” value (CYP2C19 [10]) was “weak inhibitor”. The “Effect of sertraline on elagolix plasma exposures (Cmax and AUC)” value ([11]; single‐dose 300‐mg elagolix, sertraline 25 mg once daily for 10 days) was “not affected; also recorded: did not affect”, the “Changes in vital sign values, ECG parameters, physical examination findings, laboratory measurements” value ([12]; across all studies) was “no clinically significant changes” and the “Most common adverse events assessed as mild and reasonably related to elagolix” value ([12]; across all studies) was “hot flush, headache, nausea, and amenorrhea”. The “Severe adverse events (all assessed as not related to elagolix)” value ([12]; across all studies) was 3, the Tolerability ([12]; elagolix and coadministered drugs across regimens, 144 female and male participants, 9 phase 1 studies) was “generally well tolerated” and the “Participants reporting 1 or more TEAE” value ([12]; elagolix‐alone portion of the test regimen) was “zero”.
With OC(Cn1cncn1)(Cn1cncn1)c1ccc(F)cc1F [fluconazole] the “Changes in exposure on coadministration of elagolix with fluconazole” value ([8]; abstract summary) was “No clinically significant changes in exposure” and the “Effect of elagolix on fluconazole exposures (Cmax and AUC)” value ([8]; elagolix 300 mg twice daily, fluconazole 200 mg single dose) was “not affected; also recorded: did not affect”.
With CC(=O)N1CCN(c2ccc(OCC3COC(Cn4ccnc4)(c4ccc(Cl)cc4Cl)O3)cc2)CC1 (centres unmarked) [ketoconazole, reference compound] the “Participants reporting 1 or more TEAE” value ([12]; ketoconazole‐alone portion of the test regimen) was 82%.
With Cc1ncc2n1-c1ccc(Cl)cc1C(c1ccccc1F)=NC2 [midazolam] the “Decrease in midazolam AUC” value (CYP3A [1]; multiple doses of elagolix 150 mg once daily) was about 35%, the “Decrease in midazolam AUC” value (CYP3A [1]; single dose of elagolix 150 mg once daily) was “approximately 21%” and the “Increase in midazolam AUC” value (CYP3A [7]; [15]) was about 27%. For the same compound, the “Increase in midazolam Cmax” value (CYP3A [7]; [15]) was “approximately 18%” and the “Decrease in midazolam Cmax” value (CYP3A [7]; multiple doses of elagolix 300 mg twice daily (11 days of dosing), female participants) was “approximately 44%”.
With CC(C)c1nc(N(C)S(C)(=O)=O)nc(-c2ccc(F)cc2)c1/C=C/[C@@H](O)C[C@@H](O)CC(=O)O [rosuvastatin] the “Increase in rosuvastatin Cmax” value (OATP1B1/B3 and BCRP) was “approximately 67%”, the “Increase in rosuvastatin Cmax” value (OATP1B1/B3 and BCRP; listed as Rosuvastatin) was 67% and the “Change in rosuvastatin AUC” value (OATP1B1/B3 and BCRP; first dose of elagolix 300 mg twice daily) was “no significant change”. The “Change in rosuvastatin Cmax (steady state)” value (OATP1B1/B3 and BCRP; [16]) was “not significantly changed; also recorded: no change”.
In the case of CN[C@H]1CC[C@@H](c2ccc(Cl)c(Cl)c2)c2ccccc21 [sertraline, reference compound], the “Changes in exposure on coadministration of elagolix with sertraline” value ([11]; abstract summary) is reported as “No clinically significant changes in exposure” and the “Increase in sertraline steady‐state Cmax” value [11, 16] is reported as 34%.
